# Source: PubChem BioAssay AID2060501 (Molecular Pharmacology Branch, DTP, NCI, 2025)
# System: 282377-053-R-J1-PDC complex spheroids, viability
# Assay: Anticancer human tumor 282377-053-R-J1-PDC patient-derived colon adenocarcinoma cell line growth inhibition [GQUAD]
# Conditions: for IC50: curve of first compound; for viability, T/C: stronger effect = lower value
# Procedure, shortened: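 Tumor cells were grown as complex spheroids with HUVEC endothelial cells and mesenchymal stem cells as stroma. G-quadruplex stabilizers were combined with targeted agents over half-log dilutions from near the clinical Cmax, or from 10 microM.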
# [1] = second compound 0.0316 µM, first compound 0.0316 µM
# [2] = second compound 0.0316 µM, first compound 0.316 µM
# [3] = second compound 0.1 µM, first compound 0.0316 µM
# [4] = second compound 0.1 µM, first compound 0.316 µM
# [5] = second compound 0.316 µM, first compound 0.0316 µM
# [6] = second compound 0.316 µM, first compound 0.316 µM
# [7] = second compound 1 µM, first compound 0.0316 µM
# [8] = second compound 1 µM, first compound 0.316 µM
# [9] = second compound 3.16 µM, first compound 0.0316 µM
# [10] = second compound 3.16 µM, first compound 0.316 µM
# [11] = second compound 10 µM, first compound 0.0316 µM
# [12] = second compound 10 µM, first compound 0.316 µM
# [13] = second compound 0.0316 µM, first compound 0.1 µM
# [14] = second compound 0.0316 µM, first compound 1 µM
# [15] = second compound 0.0316 µM, first compound 3.16 µM
# [16] = second compound 0.0316 µM, first compound 10 µM
# [17] = second compound 0.1 µM, first compound 0.1 µM
# [18] = second compound 0.1 µM, first compound 1 µM
# [19] = second compound 0.1 µM, first compound 3.16 µM
# [20] = second compound 0.1 µM, first compound 10 µM
# [21] = second compound 0.316 µM, first compound 0.1 µM
# [22] = second compound 0.316 µM, first compound 1 µM
# [23] = second compound 0.316 µM, first compound 3.16 µM
# [24] = second compound 0.316 µM, first compound 10 µM
# [25] = second compound 1 µM, first compound 0.1 µM
# [26] = second compound 1 µM, first compound 1 µM
# [27] = second compound 1 µM, first compound 3.16 µM
# [28] = second compound 1 µM, first compound 10 µM
# [29] = second compound 3.16 µM, first compound 0.1 µM
# [30] = second compound 3.16 µM, first compound 1 µM
# [31] = second compound 3.16 µM, first compound 3.16 µM
# [32] = second compound 3.16 µM, first compound 10 µM
# [33] = second compound 10 µM, first compound 0.1 µM
# [34] = second compound 10 µM, first compound 1 µM
# [35] = second compound 10 µM, first compound 3.16 µM
# [36] = second compound 10 µM, first compound 10 µM
# 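Further: spheroids exposed to compounds for 7 days before readout.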
# 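Wherever viability, T/C is given: percent of vehicle DMSO control viability with 100% = untreated-like growth.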
smiles,measurement,setting,value
Cc1[nH]c2ccccc2c1CCNCc1ccc(/C=C/C(=O)NO)cc1 + CN(C)c1ccc(Nc2c3ccc(NC(=O)CCN4CCCC4)cc3nc3cc(NC(=O)CCN4CCCC4)ccc23)cc1,IC50,second compound 0.0316 µM,0.189 µM
same,IC50,second compound 0.1 µM,0.189 µM
same,IC50,second compound 0.316 µM,0.179 µM
same,IC50,second compound 1 µM,0.189 µM
same,IC50,second compound 3.16 µM,0.173 µM
same,IC50,second compound 10 µM,0.147 µM
same,"viability, T/C","second compound 0.0316 µM, first compound 0.000999 µM",106%
same,"viability, T/C","second compound 0.0316 µM, first compound 0.00316 µM",91.1%
same,"viability, T/C","second compound 0.0316 µM, first compound 0.00999 µM",109%
same,"viability, T/C",[1],110%
same,"viability, T/C","second compound 0.0316 µM, first compound 0.0999 µM",106%
same,"viability, T/C",[2],6.18%
same,"viability, T/C","second compound 0.1 µM, first compound 0.000999 µM",97.3%
same,"viability, T/C","second compound 0.1 µM, first compound 0.00316 µM",108%
same,"viability, T/C","second compound 0.1 µM, first compound 0.00999 µM",114%
same,"viability, T/C",[3],89.3%
same,"viability, T/C","second compound 0.1 µM, first compound 0.0999 µM",105%
same,"viability, T/C",[4],7.41%
same,"viability, T/C","second compound 0.316 µM, first compound 0.000999 µM",91.8%
same,"viability, T/C","second compound 0.316 µM, first compound 0.00316 µM",86.4%
same,"viability, T/C","second compound 0.316 µM, first compound 0.00999 µM",91.4%
same,"viability, T/C",[5],116%
same,"viability, T/C","second compound 0.316 µM, first compound 0.0999 µM",99.6%
same,"viability, T/C",[6],3.85%
same,"viability, T/C","second compound 1 µM, first compound 0.000999 µM",90.2%
same,"viability, T/C","second compound 1 µM, first compound 0.00316 µM",98.5%
same,"viability, T/C","second compound 1 µM, first compound 0.00999 µM",108%
same,"viability, T/C",[7],121%
same,"viability, T/C","second compound 1 µM, first compound 0.0999 µM",103%
same,"viability, T/C",[8],7.41%
same,"viability, T/C","second compound 3.16 µM, first compound 0.000999 µM",92.9%
same,"viability, T/C","second compound 3.16 µM, first compound 0.00316 µM",95.1%
same,"viability, T/C","second compound 3.16 µM, first compound 0.00999 µM",101%
same,"viability, T/C",[9],123%
same,"viability, T/C","second compound 3.16 µM, first compound 0.0999 µM",89.8%
same,"viability, T/C",[10],6.57%
same,"viability, T/C","second compound 10 µM, first compound 0.000999 µM",78.5%
same,"viability, T/C","second compound 10 µM, first compound 0.00316 µM",103%
same,"viability, T/C","second compound 10 µM, first compound 0.00999 µM",94.6%
same,"viability, T/C",[11],92.8%
same,"viability, T/C","second compound 10 µM, first compound 0.0999 µM",73.6%
same,"viability, T/C",[12],3.92%
Nc1ccn(C2OC(CO)C(O)C2(F)F)c(=O)n1 (stereo unspecified) + CN(C)c1ccc(Nc2c3ccc(NC(=O)CCN4CCCC4)cc3nc3cc(NC(=O)CCN4CCCC4)ccc23)cc1,IC50,second compound 0.0316 µM,0.29 µM
same,IC50,second compound 0.1 µM,0.296 µM
same,IC50,second compound 0.316 µM,0.263 µM
same,IC50,second compound 1 µM,0.271 µM
same,IC50,second compound 3.16 µM,0.227 µM
same,IC50,second compound 10 µM,0.228 µM
same,"viability, T/C",[1],112%
same,"viability, T/C",[13],68.5%
same,"viability, T/C",[2],49.7%
same,"viability, T/C",[14],35.8%
same,"viability, T/C",[15],32.5%
same,"viability, T/C",[16],20.7%
same,"viability, T/C",[3],114%
same,"viability, T/C",[17],78.7%
same,"viability, T/C",[4],42.9%
same,"viability, T/C",[18],37.7%
same,"viability, T/C",[19],30.8%
same,"viability, T/C",[20],20.3%
same,"viability, T/C",[5],115%
same,"viability, T/C",[21],77.9%
same,"viability, T/C",[6],40.9%
same,"viability, T/C",[22],35.8%
same,"viability, T/C",[23],33.7%
same,"viability, T/C",[24],19.7%
same,"viability, T/C",[7],95%
same,"viability, T/C",[25],77.6%
same,"viability, T/C",[8],42.7%
same,"viability, T/C",[26],35.7%
same,"viability, T/C",[27],32.7%
same,"viability, T/C",[28],20.3%
same,"viability, T/C",[9],87.6%
same,"viability, T/C",[29],59.9%
same,"viability, T/C",[10],44.5%
same,"viability, T/C",[30],38.3%
same,"viability, T/C",[31],38.5%
same,"viability, T/C",[32],26.9%
same,"viability, T/C",[11],92.1%
same,"viability, T/C",[33],74%
same,"viability, T/C",[12],40.2%
same,"viability, T/C",[34],30.9%
same,"viability, T/C",[35],36.3%
same,"viability, T/C",[36],22.8%
O=C(NO)c1cnc(N2CCN(S(=O)(=O)c3ccc4ccccc4c3)CC2)nc1 + CN(C)c1ccc(Nc2c3ccc(NC(=O)CCN4CCCC4)cc3nc3cc(NC(=O)CCN4CCCC4)ccc23)cc1,IC50,second compound 0.0316 µM,0.518 µM
same,IC50,second compound 0.1 µM,0.512 µM
same,IC50,second compound 0.316 µM,0.536 µM
same,IC50,second compound 1 µM,0.508 µM
same,IC50,second compound 3.16 µM,0.578 µM
same,IC50,second compound 10 µM,0.464 µM
same,"viability, T/C",[1],107%
same,"viability, T/C",[13],128%
same,"viability, T/C",[2],86.8%
same,"viability, T/C",[14],2.18%
same,"viability, T/C",[15],0.16%
same,"viability, T/C",[16],0.17%
same,"viability, T/C",[3],110%
same,"viability, T/C",[17],93.4%
same,"viability, T/C",[4],83.6%
same,"viability, T/C",[18],3.12%
same,"viability, T/C",[19],0.11%
same,"viability, T/C",[20],0.12%
same,"viability, T/C",[5],111%
same,"viability, T/C",[21],101%
same,"viability, T/C",[6],90.6%
same,"viability, T/C",[22],2.03%
same,"viability, T/C",[23],0.1%
same,"viability, T/C",[24],0.11%
same,"viability, T/C",[7],103%
same,"viability, T/C",[25],120%
same,"viability, T/C",[8],84%
same,"viability, T/C",[26],2.22%
same,"viability, T/C",[27],0.08%
same,"viability, T/C",[28],0.11%
same,"viability, T/C",[9],113%
same,"viability, T/C",[29],92.1%
same,"viability, T/C",[10],106%
same,"viability, T/C",[30],1.28%
same,"viability, T/C",[31],0.14%
same,"viability, T/C",[32],0.13%
same,"viability, T/C",[11],93%
same,"viability, T/C",[33],87.8%
same,"viability, T/C",[12],73.1%
same,"viability, T/C",[34],3.72%
same,"viability, T/C",[35],0.18%
same,"viability, T/C",[36],0.17%
